Experimental findings from ChEMBL document CHEMBL4052747 (Bioorg Med Chem Lett, 2017) are described below.

Molecules are shown by their SMILES. Structures can show the parent of a compound that is named as a salt. Active and inactive are the calls of the source.

Test [1] addresses T1, Mu-type opioid receptor (Homo sapiens, UniProt P35372). As to the kind of experiment: Agonist activity at human mu opioid receptor expressed in CHO-dhfr(-) cells assessed as inhibition of forskolin-induced cAMP accumulation by TR-FRET assay. In kind it is functional, cell-based. On the technique in general: Changes in cAMP serve as a functional read-out for many G protein-coupled receptors.

Test [2] has as its target T2, Kappa-type opioid receptor (Homo sapiens, UniProt P41145). As to the kind of experiment: Agonist activity at human kappa opioid receptor expressed in CHO-K1 cells assessed as inhibition of forskolin-induced cAMP accumulation by TR-FRET assay. In kind it is functional, cell-based.
The next test concerns Mus musculus. As to the kind of experiment: Anti-pruritic activity in mouse assessed as reduction in substance P-induced scratching behavior at 3 mg/kg, ip dosed 15 mins before substance P injection and measured for 30 mins post substance P challenge by MicroAct based method. In kind it is functional, organism-based.
A further test relates to Rattus norvegicus. As to the kind of experiment: Anti-allodynic activity in rat model of partial sciatic nerve ligation-induced allodynia assessed as effect on withdrawal threshold at 3 and 5 mg/kg, iv dosed 7 days after ligation and measured 30 mins post dose by up-down method with von Frey filaments assay. In kind it is functional, organism-based.
Test [3] deals with T2, Kappa-type opioid receptor. As to the kind of experiment: Agonist activity at human kappa opioid receptor.
The next test is filed under the species Homo sapiens. As to the kind of experiment: Selectivity for human kappa opioid receptor over human mu opioid receptor.
Test [4] concerns the target T1, Mu-type opioid receptor. As to the kind of experiment: Agonist activity at mu opioid receptor (unknown origin).

T2 sequence (P41145 whole entry): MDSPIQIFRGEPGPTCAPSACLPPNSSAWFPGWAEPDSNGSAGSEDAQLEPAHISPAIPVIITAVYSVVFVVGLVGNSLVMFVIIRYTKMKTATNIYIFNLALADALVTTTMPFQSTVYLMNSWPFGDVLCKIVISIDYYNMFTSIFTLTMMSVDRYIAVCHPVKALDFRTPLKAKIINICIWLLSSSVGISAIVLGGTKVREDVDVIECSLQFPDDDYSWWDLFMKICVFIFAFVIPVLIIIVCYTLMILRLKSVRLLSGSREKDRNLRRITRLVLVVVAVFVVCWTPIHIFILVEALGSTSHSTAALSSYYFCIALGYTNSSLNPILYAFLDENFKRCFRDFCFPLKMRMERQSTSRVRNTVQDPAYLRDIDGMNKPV
T1 sequence (P35372 whole entry): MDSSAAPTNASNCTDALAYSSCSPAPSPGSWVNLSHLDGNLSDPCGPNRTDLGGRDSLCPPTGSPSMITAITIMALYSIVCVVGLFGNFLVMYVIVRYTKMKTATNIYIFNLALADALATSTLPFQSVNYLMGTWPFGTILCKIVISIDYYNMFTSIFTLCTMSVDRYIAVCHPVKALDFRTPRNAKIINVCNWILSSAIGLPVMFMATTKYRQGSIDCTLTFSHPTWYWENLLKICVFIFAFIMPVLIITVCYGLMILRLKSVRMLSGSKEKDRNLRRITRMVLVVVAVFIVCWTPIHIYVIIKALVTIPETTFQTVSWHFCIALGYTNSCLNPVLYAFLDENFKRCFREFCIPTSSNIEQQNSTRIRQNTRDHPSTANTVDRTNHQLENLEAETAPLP

Broadly, the EC50 is the concentration that produces a half-maximal response. One may read the Emax as the maximal effect, on the per cent scale that the assay sets. For `Cc1ccc(/C=C/C(=O)N(C)[C@@H]2CC[C@@]3(O)[C@H]4[C@@H](O)c5ccc(O)c6c5[C@@]3(CCN4CC3CC3)[C@H]2O6)cc1`, at Mu-type opioid receptor [1], the EC50 stood at 308 nM and the Emax was 72%. Further, in test [2], the EC50 came out at 0.0494 nM and the maximal response (Emax) was determined as 101%.

For `CN(C(=O)COc1ccccc1)[C@@H]1CC[C@@]2(O)[C@H]3[C@@H](O)c4ccc(O)c5c4[C@@]2(CCN3CC2CC2)[C@H]1O5`, the EC50 at Mu-type opioid receptor [1] was over 30000 nM; in test [2], 5.04 nM. Also, the Emax turned out to be 17% on Mu-type opioid receptor [1] and 97% in test [2].

Consider `CN(C(=O)/C=C/c1ccccn1)[C@@H]1CC[C@@]2(O)[C@H]3[C@@H](O)c4ccc(O)c5c4[C@@]2(CCN3CC2CC2)[C@H]1O5`, for which, at Mu-type opioid receptor [1], the EC50 worked out at 2880 nM and the Emax was 89%. Also, in test [2], the EC50 was 0.0283 nM and the Emax amounted to 99%.

Take `CN(C(=O)/C=C/c1ccco1)[C@@H]1CC[C@@]2(O)[C@H]3[C@@H](O)c4ccc(O)c5c4[C@@]2(CCN3CC2CC2)[C@H]1O5`: on Mu-type opioid receptor [1], the EC50 worked out at 14200 nM and the Emax turned out to be 55%. Besides, in test [2], the EC50 is 0.122 nM and the maximal response (Emax) is 102%.

`CN(C(=O)CCc1ccccc1)[C@@H]1CC[C@@]2(O)[C@H]3[C@@H](O)c4ccc(O)c5c4[C@@]2(CCN3CC2CC2)[C@H]1O5`: at Mu-type opioid receptor [1], the half-maximal effective concentration (EC50) was determined as 18300 nM and the Emax amounted to 57%. Moreover, in test [2], the concentration giving a half-maximal response (EC50) is 1.04 nM and the Emax is 100%.

Regarding `CN(C(=O)/C=C/c1ccc(Cl)cc1)[C@@H]1CC[C@@]2(O)[C@H]3[C@@H](O)c4ccc(O)c5c4[C@@]2(CCN3CC2CC2)[C@H]1O5`, at Mu-type opioid receptor [1], the EC50 stood at 48.8 nM and the Emax was found to be 92%. For the same compound, in test [2], the EC50 stood at 0.0288 nM and the Emax was determined as 99%.

As to `CN(C(=O)/C=C/c1ccsc1)[C@@H]1CC[C@@]2(O)[C@H]3[C@@H](O)c4ccc(O)c5c4[C@@]2(CCN3CC2CC2)[C@H]1O5`, at Mu-type opioid receptor [1], the EC50 came to 110 nM and the Emax was 96%. For the same compound, in test [2], the EC50 is 0.028 nM and the Emax turned out to be 101%.

As for `CN(C(=O)Cc1ccccc1)[C@@H]1CC[C@@]2(O)[C@H]3[C@@H](O)c4ccc(O)c5c4[C@@]2(CCN3CC2CC2)[C@H]1O5`, on Mu-type opioid receptor [1], the EC50 was over 30000 nM and the Emax turned out to be 43%. Besides, in test [2], the EC50 was over 100 nM and the maximal response (Emax) is 18%.

As to `CN(C(=O)/C=C/c1cccs1)[C@@H]1CC[C@@]2(O)[C@H]3[C@@H](O)c4ccc(O)c5c4[C@@]2(CCN3CC2CC2)[C@H]1O5`, at Mu-type opioid receptor [1], the EC50 amounted to 4870 nM and the Emax amounted to 58%. Also, in test [2], the EC50 came to 0.00466 nM and the Emax was determined as 101%.

Regarding `CN(C(=O)/C=C/c1ccncc1)[C@@H]1CC[C@@]2(O)[C@H]3[C@@H](O)c4ccc(O)c5c4[C@@]2(CCN3CC2CC2)[C@H]1O5`, on Mu-type opioid receptor [1], the 50% effective concentration (EC50) was found to be 12100 nM and the maximal effect (Emax) came to 62%. In test [2], the EC50 is 0.0257 nM and the Emax turned out to be 99%.

Consider `CN(C(=O)/C=C/c1ccoc1)[C@@H]1CC[C@@]2(O)[C@H]3[C@@H](O)c4ccc(O)c5c4[C@@]2(CCN3CC2CC2)[C@H]1O5`, for which the outcome in the test with Mus musculus and in the test on Rattus norvegicus was Active. Moreover, the EC50 in test [3] is 0.025 nM; at Mu-type opioid receptor [1], 1100 nM; in test [2], 0.025 nM. Moreover, in the test listed under Homo sapiens, the Selectivity ratio was found to be 44000. The results for the Emax (at Mu-type opioid receptor [1]; in test [2]) were 88% and 99%, respectively.

Turning to `CN(C(=O)c1ccccc1)[C@@H]1CC[C@@]2(O)[C@H]3[C@@H](O)c4ccc(O)c5c4[C@@]2(CCN3CC2CC2)[C@H]1O5`, on Mu-type opioid receptor [1], the concentration for a half-maximal effect (EC50) was over 30000 nM and the Emax stood at 44%. In test [2], the EC50 was over 100 nM and the Emax amounted to 23%.

As to `CN(C(=O)C#Cc1ccccc1)[C@@H]1CC[C@@]2(O)[C@H]3[C@@H](O)c4ccc(O)c5c4[C@@]2(CCN3CC2CC2)[C@H]1O5`, on Mu-type opioid receptor [1], the EC50 was determined as 904 nM and the maximal effect (Emax) was 95%. Further, in test [2], the concentration giving a half-maximal response (EC50) amounted to 0.0799 nM and the Emax is 102%.

As for `CN(C(=O)/C=C/c1ccccc1)[C@@H]1CC[C@@]2(O)[C@H]3[C@@H](O)c4ccc(O)c5c4[C@@]2(CCN3CC2CC2)[C@H]1O5`, at Mu-type opioid receptor [1], the EC50 turned out to be 209 nM and the Emax was found to be 107%. In test [2], the EC50 was found to be 0.0222 nM and the Emax is 101%.

With `CN(C(=O)CCCc1ccccc1)[C@@H]1CC[C@@]2(O)[C@H]3[C@@H](O)c4ccc(O)c5c4[C@@]2(CCN3CC2CC2)[C@H]1O5`, the EC50 on Mu-type opioid receptor [1] turned out to be 12900 nM; in test [2], 7.51 nM. Also, the maximal effect (Emax) at Mu-type opioid receptor [1] came out at 99%; in test [2], 96%.

Regarding `CN(C(=O)/C=C/c1ccc(O)cc1)[C@@H]1CC[C@@]2(O)[C@H]3[C@@H](O)c4ccc(O)c5c4[C@@]2(CCN3CC2CC2)[C@H]1O5`, on Mu-type opioid receptor [1], the 50% effective concentration (EC50) is over 30000 nM and the Emax amounted to 49%. Also, in test [2], the EC50 was determined as 0.0953 nM and the Emax was found to be 98%.

Compound `CN(C(=O)/C=C/c1ccoc1)[C@@H]1CC[C@@]2(O)[C@H]3Cc4ccc(O)c5c4[C@@]2(CCN3CC2CC2)[C@H]1O5` [NALFURAFINE HYDROCHLORIDE] came in with an EC50 at Mu-type opioid receptor [4] of 1.7 nM.

Turning to `CN(C(=O)/C=C/c1cccnc1)[C@@H]1CC[C@@]2(O)[C@H]3[C@@H](O)c4ccc(O)c5c4[C@@]2(CCN3CC2CC2)[C@H]1O5`, on Mu-type opioid receptor [1], the EC50 was found to be 3760 nM and the Emax is 86%. For the same compound, in test [2], the concentration for a half-maximal effect (EC50) was 0.291 nM and the maximal response (Emax) is 101%.
